This is an account of results in article PMC7586344, “Discovery of Novel pERK1/2- or β-Arrestin-Preferring 5-HT1A Receptor-Biased Agonists: Diversified Therapeutic-like versus Side Effect Profile” (Journal of Medicinal Chemistry, 2020).

Series [1] is described as follows: Preliminary metabolic stability in rat liver microsomes. The class given is in vitro ADME. Particulars: pH 7.4, RLMs 1 mg/mL, 50 μM compound, 37 °C.
For series [2], the system named is male Wistar rats. As to the kind of experiment: Lower lip retraction. To be noted: rat; for LLR score: 50 min before test, score 0-10; for ability to induce lower lip retraction (LLR), in words: p.o. In kind it is in vivo. The procedure:
The experiments were performed on male Wistar rats (170–200 g) obtained from an accredited animal facility at the Jagiellonian University Medical College, Krakow, Poland. […] All efforts were made to minimize suffering and to reduce the number of animals used in the experiments and to use only the number of animals necessary to produce reliable scientific data. Each experimental group consisted of 6–8 animals.
The examined compounds were administered orally 60 min before tests. In antagonism experiments, WAY100635 (Tocris, UK) was administered subcutaneously 75 min before testing. Control animals received vehicle (distilled water) according to the same schedule.
Observations were made according to the method described by Kleven et al.([68]) Animals were observed individually during a 10 min period for 10 s of observation per animal. During each of these observation periods, the uninterrupted presence for at least 3 s (1) or absence (0) of LLR was recorded. This cycle was repeated 10 times over a 10 min period; thus, the incidence of a particular behavior could vary from 0 to 10.

Series [3] concerns male Wistar rats. As to the kind of experiment: Porsolt forced swimming test. In kind it is in vivo. Particulars: rat FST, 60 min before test, mean ± SEM. How it is done:
The experiments were performed on male Wistar rats (170–200 g) obtained from an accredited animal facility at the Jagiellonian University Medical College, Krakow, Poland. […] Standard laboratory food (LSM-B) and filtered water were freely available. […] Each animal was assigned randomly to treatment groups and only used once (no repeated use of animals). All the experiments were performed by two observers unaware of the treatment applied between 9:00 and 14:00 on separate groups of animals. […] All efforts were made to minimize suffering and to reduce the number of animals used in the experiments and to use only the number of animals necessary to produce reliable scientific data. Each experimental group consisted of 6–8 animals. […] The examined compounds were administered orally 60 min before tests. In antagonism experiments, WAY100635 (Tocris, UK) was administered subcutaneously 75 min before testing. Control animals received vehicle (distilled water) according to the same schedule. […] On the following day (24 h later), the rats were re-placed in the cylinder after administration of test compounds and the total duration of immobility was recorded during the 5-min test period. […] Fresh water was used for each animal.

Series [4] in a line: In vitro rat plasma protein binding (ultrafiltration). Particulars: rat serum; for fraction unbound at 30 min, 3 µg/mL / fraction unbound at 30 min, 30 µg/mL: male, Wistar, read-out: PPB ± SD (converted). In kind it is in vitro ADME. The procedure: Fresh blood was harvested from male adult Wistar rats that were sacrificed by exsanguination. The blood was allowed to clot for 20 min at room temperature and then centrifuged at 3000 rpm for 10 min (Universal 32, Hettich, Germany). 56 and 44 dissolved in water were added in volume of 10 μL to separate glass tubes containing 1 mL aliquots of rat serum to achieve final concentrations of 3 and 30 μg/mL each. All tests were run in triplicate. After vortexing, the serum samples were incubated in a water bath at 37 °C for 30 min with gentle shaking. Following this incubation period, 100 μL of serum samples from each tube were transferred to Eppendorf tubes and frozen at −80 °C for analysis. The remaining serum was transferred into Centrifree ultrafiltration devices with Ultracel regenerated cellulose membrane (Merck, Darmstadt, Germany) and centrifuged at 1000g for 15 min (EBA III centrifuge, Hettich, Germany). The collected ultrafiltrates were frozen (−80 °C) for further analysis.

Another series addresses panel of 45 off-targets. Particulars: highest off-target affinity, estimated from screening data.

By amount remaining is commonly meant the share of the starting amount still present when the sample was taken. `O=C(c1ccc(F)c(Cl)c1)N1CCC(F)(CNCCOc2ccccc2)CC1` [Compound 3] had a fraction remaining at 2 h, 50 μM in series [1] of 59.2%.

The compound `CNc1ccccc1OCCNCC1(F)CCN(C(=O)c2ccc(F)c(Cl)c2)CC1` [Compound 44, (3-Chloro-4-fluorophenyl)(4-fluoro-4-(((2-(2-(methylamino)phenoxy)ethyl)amino)methyl)piperidin-1-yl)methanone] came in with an LLR score in the series with male Wistar rats [2] (0.04 mg/kg p.o.) of 0. Further, the “ability to induce lower lip retraction (LLR), in words” value in the series with male Wistar rats [2] is reported as “did not induce any significant LLR”. Besides, the Immobility time in the series on male Wistar rats [3] (0.04 mg/kg p.o.) was found to be 199.50 ± 12.35 s. In series [4] (C0 3 µg/mL), the “fu ± SD” value is reported as 1.6 ± 0.1% and the fraction unbound at 30 min, 3 µg/mL is 0.016. Moreover, in series [4] (C0 30 µg/mL), the “fu ± SD” value is reported as 1.8 ± 0.1% and the fraction unbound at 30 min, 30 µg/mL is 0.018.

In turn, `O=C(c1ccc(F)c(Cl)c1)N1CCC(F)(CNCCOc2cccc3[nH]ccc23)CC1` [Compound 56, (4-(((2-((1H-Indol-4-yl)oxy)ethyl)amino)methyl)-4-fluoropiperidin-1-yl)(3-chloro-4-fluorophenyl)methanone] showed an LLR score in the series with male Wistar rats [2] (0.312 mg/kg p.o.) of 10 ± 0. This compound displayed an LLR score in the series on male Wistar rats [2] (1.25 mg/kg p.o.) of 10 ± 0. Also, the “ability to induce lower lip retraction (LLR), in words” value in the series on male Wistar rats [2] was “elicited a full LLR”. The compound further came in with an Immobility time with male Wistar rats [3] (1.25 mg/kg p.o.) of 67.63 ± 7.83 s. In addition, the “affinity for some of the off-targets (pKi)” value on panel of 45 off-targets is approximately 8. For the same compound, in series [4] (C0 3 µg/mL), the “fu ± SD” value is 1.1 ± 0.1% and the fraction unbound at 30 min, 3 µg/mL is 0.011. In series [4] (C0 30 µg/mL), the “fu ± SD” value is listed as 1.9 ± 0.1% and the fraction unbound at 30 min, 30 µg/mL was 0.019. The same compound yielded a fraction remaining at 2 h, 50 μM in series [1] of 87.4%.
